Assay [1] has as its target T1, Cathepsin G (Homo sapiens) (UniProt P08311).
T1 sequence (whole entry): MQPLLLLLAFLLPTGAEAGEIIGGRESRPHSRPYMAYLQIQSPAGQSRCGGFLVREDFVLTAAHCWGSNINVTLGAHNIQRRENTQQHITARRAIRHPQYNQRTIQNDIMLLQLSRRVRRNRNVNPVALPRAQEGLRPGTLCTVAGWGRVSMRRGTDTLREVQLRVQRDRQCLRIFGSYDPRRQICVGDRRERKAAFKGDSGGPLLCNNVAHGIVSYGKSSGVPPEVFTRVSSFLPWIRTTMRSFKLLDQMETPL
Nature of the assay: Second order rate constant for the inhibition of leukocyte Cathepsin G (Cat G).

The next assay has as its target T2, Chymase (Homo sapiens) (UniProt P23946).
T2 sequence (whole entry): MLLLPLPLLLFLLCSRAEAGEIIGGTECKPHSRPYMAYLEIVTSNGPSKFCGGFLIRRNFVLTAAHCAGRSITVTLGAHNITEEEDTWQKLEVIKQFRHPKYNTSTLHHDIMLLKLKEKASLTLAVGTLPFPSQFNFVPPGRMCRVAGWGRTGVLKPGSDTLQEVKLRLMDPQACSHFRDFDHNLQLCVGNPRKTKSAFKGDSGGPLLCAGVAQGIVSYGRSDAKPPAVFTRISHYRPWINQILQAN
Put plainly: Second order rate constant for the inhibition of human skin chymase.

The source made the active and inactive calls. The rule behind the calls is not given here.

On to `O=C(O)c1ccccc1S(=O)(=O)CN1C(=O)C(Cc2ccccc2)N(Cc2ccccc2)S1(=O)=O` (configuration not stated), for which the K inact/Ki in assay [1] was 350 M⁻¹ s⁻¹. The “K inact/Ki” value on Chymase (Homo sapiens) is “inactive”.
As to `O=C(OCN1C(=O)C(Cc2ccccc2)N(Cc2ccccc2)S1(=O)=O)C(O)c1ccccc1` (configuration not stated), the K inact/Ki worked out at 12300 M⁻¹ s⁻¹ in assay [1] and 39900 M⁻¹ s⁻¹ on Chymase (Homo sapiens).
In the same order, the values of `O=C(O)CC(=O)OCN1C(=O)C(Cc2ccccc2)N(Cc2ccccc2)S1(=O)=O` (configuration not stated) are 22700 M⁻¹ s⁻¹ and 45700 M⁻¹ s⁻¹.
The matching figures for `CN1C(Cc2ccccc2)C(=O)N(CSc2nc3ccccc3o2)S1(=O)=O` (configuration not stated): 430 M⁻¹ s⁻¹ and 6250 M⁻¹ s⁻¹.
The matching figures for `O=C(O)CCS(=O)(=O)CN1C(=O)C(Cc2ccccc2)N(Cc2ccccc2)S1(=O)=O` (configuration not stated): 17400 M⁻¹ s⁻¹ and 23400 M⁻¹ s⁻¹.
As to `O=C(O)CS(=O)(=O)CN1C(=O)C(Cc2ccccc2)N(Cc2ccccc2)S1(=O)=O` (configuration not stated), the values for the K inact/Ki (in assay [1]; at Chymase (Homo sapiens)) were 25200 M⁻¹ s⁻¹ and 10800 M⁻¹ s⁻¹, respectively.
For the compound `O=C(O)c1cccc(S(=O)(=O)CN2C(=O)C(Cc3ccccc3)N(Cc3ccccc3)S2(=O)=O)c1` (configuration not stated), the K inact/Ki turned out to be 20700 M⁻¹ s⁻¹ in assay [1] and 13500 M⁻¹ s⁻¹ at Chymase (Homo sapiens).
In the same order, the values of `O=C(O)c1ccc(S(=O)(=O)CN2C(=O)C(Cc3ccccc3)N(Cc3ccccc3)S2(=O)=O)cc1` (configuration not stated) are 66700 M⁻¹ s⁻¹ and 186000 M⁻¹ s⁻¹.
The matching figures for `O=C1C(Cc2ccccc2)N(Cc2ccccc2)S(=O)(=O)N1CS(=O)(=O)c1ccccc1` (configuration not stated): 11200 M⁻¹ s⁻¹ and 12500 M⁻¹ s⁻¹.
Consider `O=C(CO)OCN1C(=O)C(Cc2ccccc2)N(Cc2ccccc2)S1(=O)=O` (configuration not stated), for which the results for the K inact/Ki (in assay [1]; at Chymase (Homo sapiens)) were 12800 M⁻¹ s⁻¹ and 30500 M⁻¹ s⁻¹, respectively.
The matching figures for `Nc1ccc2nc(SCN3C(=O)C(Cc4ccccc4)N(Cc4ccccc4)S3(=O)=O)sc2c1` (configuration not stated): 15700 M⁻¹ s⁻¹ and 14700 M⁻¹ s⁻¹.
The matching figures for `CC(O)C(=O)OCN1C(=O)C(Cc2ccccc2)N(Cc2ccccc2)S1(=O)=O` (configuration not stated): 12700 M⁻¹ s⁻¹ and 38500 M⁻¹ s⁻¹.
The matching figures for `O=C1C(Cc2ccccc2)N(Cc2ccccc2)S(=O)(=O)N1CSc1nc2ccccc2o1` (configuration not stated): 17100 M⁻¹ s⁻¹ and 5430 M⁻¹ s⁻¹.
Regarding `O=C1C(Cc2ccccc2)N(Cc2ccccc2)S(=O)(=O)N1CSc1nnc(-c2ccccc2)o1` (configuration not stated), the K inact/Ki in assay [1] stood at 490 M⁻¹ s⁻¹; on Chymase (Homo sapiens) it was 5090 M⁻¹ s⁻¹.
The matching figures for `CS(=O)(=O)CN1C(=O)C(Cc2ccccc2)N(Cc2ccccc2)S1(=O)=O` (configuration not stated): 8500 M⁻¹ s⁻¹ and 4600 M⁻¹ s⁻¹.
In the same order, the values of `CC(=O)OCN1C(=O)C(Cc2ccccc2)N(Cc2ccccc2)S1(=O)=O` (configuration not stated) are 10600 M⁻¹ s⁻¹ and 21800 M⁻¹ s⁻¹.

These data come from ChEMBL document CHEMBL1131819, “Human chymase inhibitors based on the 1,2,5-thiadiazolidin-3-one 1,1 dioxide scaffold” (Bioorg Med Chem Lett, 1999).
